The values below come from PMC2779714 (Science signaling, 2009).

The target in assay [1] is TRPM2 (Rattus norvegicus, UniProt E9PTA2). The assay is described as follows: whole-cell patch clamp with intracellular ADPR. The class given is cell-based. A general note: Patch clamp records ionic current or voltage across a cell membrane.
Assay [2] addresses TRPM2 (Mus musculus, UniProt Q91YD4). The assay is described as follows: whole-cell patch clamp with intracellular ADPR. The class given is cell-based.

pEC50: −log10 of the molar value.

The pEC50 is the negative decadic logarithm of the EC50, by convention in mol/L. Higher therefore signals a low EC50.

TRPM2 (Rattus norvegicus, UniProt E9PTA2), sequence (E9PTA2 whole entry): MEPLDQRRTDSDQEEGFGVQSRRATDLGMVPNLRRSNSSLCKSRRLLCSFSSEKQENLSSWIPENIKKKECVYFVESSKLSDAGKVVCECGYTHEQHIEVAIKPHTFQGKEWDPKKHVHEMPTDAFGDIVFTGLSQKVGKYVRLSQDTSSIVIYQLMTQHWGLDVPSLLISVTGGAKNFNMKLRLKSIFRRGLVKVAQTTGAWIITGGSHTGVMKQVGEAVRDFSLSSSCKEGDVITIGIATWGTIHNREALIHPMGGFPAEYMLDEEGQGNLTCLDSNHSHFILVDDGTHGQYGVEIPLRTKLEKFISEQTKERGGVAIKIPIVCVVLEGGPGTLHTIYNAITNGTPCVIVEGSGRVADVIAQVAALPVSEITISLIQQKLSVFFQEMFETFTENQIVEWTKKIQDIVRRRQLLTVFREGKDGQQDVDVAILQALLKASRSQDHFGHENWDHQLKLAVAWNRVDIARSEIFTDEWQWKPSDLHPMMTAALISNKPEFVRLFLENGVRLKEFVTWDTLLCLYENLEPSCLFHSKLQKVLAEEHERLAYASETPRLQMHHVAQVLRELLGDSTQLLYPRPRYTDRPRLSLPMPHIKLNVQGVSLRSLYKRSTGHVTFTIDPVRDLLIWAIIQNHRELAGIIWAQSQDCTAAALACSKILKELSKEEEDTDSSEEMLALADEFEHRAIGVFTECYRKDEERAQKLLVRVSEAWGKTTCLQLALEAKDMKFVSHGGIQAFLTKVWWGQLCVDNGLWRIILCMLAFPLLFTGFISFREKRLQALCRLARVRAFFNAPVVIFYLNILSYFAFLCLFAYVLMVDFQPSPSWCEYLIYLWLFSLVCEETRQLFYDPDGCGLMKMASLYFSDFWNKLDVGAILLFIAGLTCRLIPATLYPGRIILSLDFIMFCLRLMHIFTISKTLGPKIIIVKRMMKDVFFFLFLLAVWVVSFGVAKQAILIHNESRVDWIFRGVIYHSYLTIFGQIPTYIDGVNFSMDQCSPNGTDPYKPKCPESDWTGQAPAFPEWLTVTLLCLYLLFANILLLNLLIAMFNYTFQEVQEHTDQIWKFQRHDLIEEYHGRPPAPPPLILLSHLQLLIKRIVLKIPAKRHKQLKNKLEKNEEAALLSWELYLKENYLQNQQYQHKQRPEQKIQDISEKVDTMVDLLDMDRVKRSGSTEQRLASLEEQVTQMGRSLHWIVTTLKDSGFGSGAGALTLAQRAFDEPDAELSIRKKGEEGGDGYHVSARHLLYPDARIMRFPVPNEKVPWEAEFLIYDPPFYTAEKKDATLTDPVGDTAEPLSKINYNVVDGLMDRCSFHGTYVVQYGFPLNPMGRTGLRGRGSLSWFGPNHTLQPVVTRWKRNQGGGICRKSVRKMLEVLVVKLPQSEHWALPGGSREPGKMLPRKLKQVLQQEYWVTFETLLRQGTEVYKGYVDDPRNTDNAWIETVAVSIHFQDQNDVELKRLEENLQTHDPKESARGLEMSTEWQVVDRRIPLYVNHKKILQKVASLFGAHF
TRPM2 (Mus musculus, UniProt Q91YD4), sequence (Q91YD4 whole entry): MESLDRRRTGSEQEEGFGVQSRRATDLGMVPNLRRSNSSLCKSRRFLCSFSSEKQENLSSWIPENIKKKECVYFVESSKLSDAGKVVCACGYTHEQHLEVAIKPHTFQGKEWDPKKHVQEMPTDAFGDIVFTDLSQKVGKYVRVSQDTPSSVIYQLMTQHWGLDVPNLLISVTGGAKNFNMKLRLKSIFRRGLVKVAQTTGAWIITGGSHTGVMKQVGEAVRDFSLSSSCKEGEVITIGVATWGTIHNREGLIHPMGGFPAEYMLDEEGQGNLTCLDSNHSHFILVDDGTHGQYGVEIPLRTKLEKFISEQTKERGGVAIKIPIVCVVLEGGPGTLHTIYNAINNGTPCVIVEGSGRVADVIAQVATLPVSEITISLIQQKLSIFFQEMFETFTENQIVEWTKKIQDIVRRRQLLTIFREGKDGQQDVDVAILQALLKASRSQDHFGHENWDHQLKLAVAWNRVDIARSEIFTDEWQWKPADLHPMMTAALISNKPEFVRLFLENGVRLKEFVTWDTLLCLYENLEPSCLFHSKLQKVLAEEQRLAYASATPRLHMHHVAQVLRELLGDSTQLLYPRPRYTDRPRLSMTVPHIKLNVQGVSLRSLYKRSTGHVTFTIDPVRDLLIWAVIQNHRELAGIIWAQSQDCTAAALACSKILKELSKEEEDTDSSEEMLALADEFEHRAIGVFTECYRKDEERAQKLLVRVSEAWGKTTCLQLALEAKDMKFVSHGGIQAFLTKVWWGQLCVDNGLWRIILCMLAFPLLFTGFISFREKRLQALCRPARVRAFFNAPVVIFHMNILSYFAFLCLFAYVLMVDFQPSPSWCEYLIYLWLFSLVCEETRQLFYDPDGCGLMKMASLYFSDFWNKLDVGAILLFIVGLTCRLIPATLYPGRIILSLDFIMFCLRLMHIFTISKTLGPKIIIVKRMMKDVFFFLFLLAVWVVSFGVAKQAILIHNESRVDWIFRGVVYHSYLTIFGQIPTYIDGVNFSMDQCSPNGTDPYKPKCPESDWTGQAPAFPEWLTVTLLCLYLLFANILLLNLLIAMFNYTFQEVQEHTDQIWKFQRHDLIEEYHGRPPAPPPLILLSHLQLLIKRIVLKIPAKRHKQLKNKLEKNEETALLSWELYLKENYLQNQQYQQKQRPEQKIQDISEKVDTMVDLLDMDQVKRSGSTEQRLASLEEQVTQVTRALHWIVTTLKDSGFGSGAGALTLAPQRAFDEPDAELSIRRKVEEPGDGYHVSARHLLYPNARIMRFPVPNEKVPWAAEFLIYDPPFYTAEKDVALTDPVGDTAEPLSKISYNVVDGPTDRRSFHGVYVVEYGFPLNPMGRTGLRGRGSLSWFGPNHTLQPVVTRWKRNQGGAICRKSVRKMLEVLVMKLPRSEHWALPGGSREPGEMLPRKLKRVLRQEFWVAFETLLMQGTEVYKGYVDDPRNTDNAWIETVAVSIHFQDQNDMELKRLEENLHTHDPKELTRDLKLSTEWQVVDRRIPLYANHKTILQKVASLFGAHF

Consider `Nc1ncnc2c1ncn2[C@@H]1O[C@H](COP(=O)(O)OP(=O)(O)OC[C@H]2OC(O)[C@H](O)[C@@H]2O)[C@@H](O)[C@H]1O` (some centres unmarked) [ADPR], for which the pEC50 at TRPM2 [1] was 3.96; on TRPM2 [2], 3.44.
